Tests used:
[1] = test system: pentagastrin-stimulated acid secretion of the perfused rat stomach; experiment: Secretion-inhibiting action on the perfused rat stomach (pentagastrin-stimulated acid secretion); assay type: in vivo; conditions: anesthetized CD rat, dose 3.0 μmol/kg i.d. (intraduodenal)
Text: Testing of the Secretion-Inhibiting Action on the Perfused Rat Stomach
In Table A which follows, the influence of the compounds of the formula 1 according to the invention on the pentagastrin-stimulated acid secretion of the perfused rat stomach after intraduodenal administration in vivo is shown.
The abdomen of anesthetized rats (CD rat, female, 200-250 g; 1.5 g/kg i.m. urethane) was opened after tracheotomy by a median upper abdominal incision and a PVC catheter was fixed transorally in the esophagus and another via the pylorus such that the ends of the tubes just projected into the gastric lumen. The catheter leading from the pylorus led outward into the right abdominal wall through a side opening.
After thorough rinsing (about 50-100 ml), warm (37° C.) physiological NaCl solution was continuously passed through the stomach (0.5 ml/min, pH 6.8-6.9; Braun-Unita I). The pH (pH meter 632, glass electrode EA 147; φ=5 mm, Metrohm) and, by titration with a freshly prepared 0.01N NaOH solution to pH 7 (Dosimat 665 Metrohm), the secreted HCl were determined in the effluent in each case collected at an interval of 15 minutes.
The gastric secretion was stimulated by continuous infusion of […] (=1.65 ml/h) of i.v. pentagastrin (left femoral vein) about 30 min after the end of the operation (i.e. after determination of 2 preliminary fractions). […]

Row | melting point [°C] | Compound | Inhibition of acid secretion [1] [%]
1 | 228 to 229 | Cc1nc2c3c(ccc2n1C)[C@H](O)C[C@H](c1ccccc1)O3 (relative stereo) [Example 1, cis-2,3-Dimethyl-8-phenyl-3,6,7,8-tetrahydro-chromeno[7,8-d]imidazol-6-ol] | 
2 | 148 to 149 | COCCOC1CC(c2ccccc2)Oc2c1ccc1c2nc(C)n1C (stereo not shown) [Example 2, 6-(2-Methoxy-ethoxy)-2,3-dimethyl-8-phenyl-3,6,7,8-tetrahydro-chromeno[7,8-d]imidazole] | >50
3 | 177 to 178 | CCOC1CC(c2ccccc2)Oc2c1ccc1c2nc(C)n1C (stereo not shown) [Example 3, 6-(2-Ethoxy)-2,3-dimethyl-8-phenyl-3,6,7,8-tetrahydro-chromeno[7,8-d]imidazole] | 
